Data from ChEMBL document CHEMBL1629479, “Old phenothiazine and dibenzothiadiazepine derivatives for tomorrow's neuroprotective therapies against neurodegenerative diseases” (Eur J Med Chem, 2010).

Columns and labels:
SH-SY5Y [1] = test: Cytotoxicity against human SH-SY5Y cells assessed as LDH release at 100 uM after 24 hrs by UV-vis spectroscopy; assay type: cell-based
SH-SY5Y [2] = test: Neuroprotective activity against H2O2-induced oxidative stress in human SH-SY5Y cells assessed as LDH release at 30 uM after 24 hrs by UV-vis spectroscopy in presence of calcium channel blocker nimodipine; assay type: functional
[3] = Permeability of the compound by PAMPA at pH 7.4; assay type: ADME; conditions: read-out: permeability
SH-SY5Y [4] = test: Neuroprotective activity against H2O2-induced oxidative stress in human SH-SY5Y cells assessed as LDH release at 60 uM after 24 hrs by UV-vis spectroscopy; assay type: functional
SH-SY5Y [5] = test: Neuroprotective activity against H2O2-induced oxidative stress in human SH-SY5Y cells assessed as LDH release at 1 uM after 24 hrs by UV-vis spectroscopy; assay type: functional
SH-SY5Y [6] = test: Neuroprotective activity against rotenone and oligomycin-induced mitochondrial oxidative stress in human SH-SY5Y cells assessed as LDH release at 10 uM after 24 hrs using DCFH-DA fluorescent dye; assay type: functional
SH-SY5Y [7] = test: Neuroprotective activity against rotenone and oligomycin-induced mitochondrial oxidative stress in human SH-SY5Y cells assessed as LDH release at 3 uM after 24 hrs using DCFH-DA fluorescent dye; assay type: functional
Cholinesterase = Cholinesterase (Equus caballus, UniProt P81908); test: Inhibition of equine serum BuChE by Ellman's method
Chain of Cholinesterase (P81908 whole entry): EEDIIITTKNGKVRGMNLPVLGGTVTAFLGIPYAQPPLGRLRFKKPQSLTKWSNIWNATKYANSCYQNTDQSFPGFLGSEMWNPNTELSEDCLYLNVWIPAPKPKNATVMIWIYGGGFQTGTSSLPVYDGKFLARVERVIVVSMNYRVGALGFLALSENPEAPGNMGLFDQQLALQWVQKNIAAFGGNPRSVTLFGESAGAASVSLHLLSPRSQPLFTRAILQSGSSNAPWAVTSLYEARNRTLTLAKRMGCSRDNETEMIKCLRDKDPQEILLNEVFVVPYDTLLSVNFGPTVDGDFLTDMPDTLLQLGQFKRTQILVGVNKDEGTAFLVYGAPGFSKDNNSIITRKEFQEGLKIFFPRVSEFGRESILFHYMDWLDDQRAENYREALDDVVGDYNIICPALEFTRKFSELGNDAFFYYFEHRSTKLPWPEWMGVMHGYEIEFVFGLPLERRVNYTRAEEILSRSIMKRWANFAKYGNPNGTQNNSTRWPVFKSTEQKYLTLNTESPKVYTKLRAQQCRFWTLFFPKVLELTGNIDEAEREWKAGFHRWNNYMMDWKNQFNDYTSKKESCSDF

Acetylcholinesterase = biological target: T1, Acetylcholinesterase (Bos taurus, UniProt P23795)
T1 sequence (P23795 whole entry): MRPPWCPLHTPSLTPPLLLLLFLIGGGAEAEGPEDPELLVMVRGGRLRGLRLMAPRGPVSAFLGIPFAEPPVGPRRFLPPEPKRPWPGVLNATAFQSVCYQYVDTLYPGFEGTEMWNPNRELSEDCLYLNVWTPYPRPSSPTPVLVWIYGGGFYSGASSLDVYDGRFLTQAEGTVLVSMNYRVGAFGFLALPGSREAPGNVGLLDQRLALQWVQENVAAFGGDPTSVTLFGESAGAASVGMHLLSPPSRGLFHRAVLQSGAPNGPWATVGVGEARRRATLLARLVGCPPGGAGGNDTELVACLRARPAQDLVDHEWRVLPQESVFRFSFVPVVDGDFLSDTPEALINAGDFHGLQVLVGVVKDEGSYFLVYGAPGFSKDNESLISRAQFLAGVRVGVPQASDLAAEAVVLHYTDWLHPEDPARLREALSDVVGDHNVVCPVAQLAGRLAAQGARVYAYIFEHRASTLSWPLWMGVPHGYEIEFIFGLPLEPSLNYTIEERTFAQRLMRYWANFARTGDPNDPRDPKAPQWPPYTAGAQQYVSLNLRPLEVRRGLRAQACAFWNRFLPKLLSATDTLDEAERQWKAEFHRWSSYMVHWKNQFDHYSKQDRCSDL
Description: Inhibition of bovine erythrocyte AChE by Ellman's method

SH-SY5Y [8] = test: Neuroprotective activity against H2O2-induced oxidative stress in human SH-SY5Y cells assessed as LDH release at 3 uM after 24 hrs by UV-vis spectroscopy; assay type: functional
SH-SY5Y [9] = test: Neuroprotective activity against H2O2-induced oxidative stress in human SH-SY5Y cells assessed as LDH release at 100 uM after 24 hrs by UV-vis spectroscopy; assay type: functional
SH-SY5Y [10] = test: Neuroprotective activity against H2O2-induced oxidative stress in human SH-SY5Y cells assessed as LDH release at 30 uM after 24 hrs by UV-vis spectroscopy; assay type: functional
SH-SY5Y [11] = test: Neuroprotective activity against rotenone and oligomycin-induced mitochondrial oxidative stress in human SH-SY5Y cells assessed as LDH release at 30 uM after 24 hrs using DCFH-DA fluorescent dye; assay type: functional
SH-SY5Y [12] = test: Neuroprotective activity against H2O2-induced oxidative stress in human SH-SY5Y cells assessed as LDH release at 100 uM after 24 hrs by UV-vis spectroscopy in presence of calcium channel blocker nimodipine; assay type: functional

Row | Compound | Activity (SH-SY5Y [1]) | Activity (SH-SY5Y [2]) [%] | Papp [3] [×10⁻⁶ cm/s] | Activity (SH-SY5Y [4]) [%] | Activity (SH-SY5Y [5]) [%] | Activity (SH-SY5Y [6]) [%] | Activity (SH-SY5Y [7]) [%] | IC50 (Cholinesterase) [µM] | IC50 (Acetylcholinesterase) [µM] | Activity (SH-SY5Y [8]) [%] | Activity (SH-SY5Y [9]) [%] | Activity (SH-SY5Y [10]) [%] | Activity (SH-SY5Y [11]) [%] | Activity (SH-SY5Y [12]) [%]
1 | CN(C)CCC(=O)NN1c2ccccc2Sc2cc(Cl)ccc21 | Non-toxic | 6.5 | 8.8 | 18.6 | 0 | 18.9 | 21.4 | 0.7 | > 100 | 8.4 | 20.1 | 44.4 | 52.9 | –
2 | CN1CCN(CC(=O)NN2c3ccccc3Sc3cc(Cl)ccc32)CC1 | Non-toxic | – | – | 18.4 | 12.5 | – | – | 0.5 | > 100 | 17.1 | 18.8 | 37.9 | – | –
3 | CC(=O)NN1c2ccccc2Sc2ccc(Cl)cc21 | Non-toxic | – | – | 0 | 0 | – | – | > 100 | > 100 | 0 | 0 | 0 | – | –
4 | NN1c2ccccc2Sc2ccccc21 | Non-toxic | – | – | 0 | 0 | – | – | > 100 | > 100 | 6.7 | 0 | 0 | – | –
5 | CC(=O)n1c2ccccc2sc2cccc(Cl)c2n1C(C)=O | Non-toxic | – | 7.7 | 13.2 | 0 | 43.4 | 48.5 | > 100 | > 100 | 6.4 | 41 | 11.4 | 38.9 | 0
6 | CN1CCN(NCCN2c3ccccc3Sc3ccccc32)CC1.Cl.Cl | Non-toxic | – | 9.1 | 36.9 | 14.1 | 22.5 | 19.4 | 50 | > 100 | 8.3 | 42.1 | 22.1 | 22.6 | 16.4
7 | Cc1c(C)c2c(c(C)c1O)CCC(C)(C(=O)O)O2 (configuration not stated) [TROLOX] | – | – | – | 55.7 | 0 | 43.2 | 52.9 | – | – | 0 | 64.2 | 57.7 | 39.3 | 60.3
